From ChEMBL document CHEMBL1147994 (Bioorg Med Chem Lett, 2007)

How the values were obtained:
Dipeptidyl peptidase 2 = Dipeptidyl peptidase 2 (Homo sapiens, UniProt Q9UHL4); experiment: Inhibition of QPP
Dipeptidyl peptidase 8 = Dipeptidyl peptidase 8 (Homo sapiens, UniProt Q6V1X1); experiment: Inhibition of DPP8
Dipeptidyl peptidase 9 = Dipeptidyl peptidase 9 (Homo sapiens, UniProt Q86TI2); experiment: Inhibition of DPP9
Sequence of Dipeptidyl peptidase 9 (Q86TI2 whole entry): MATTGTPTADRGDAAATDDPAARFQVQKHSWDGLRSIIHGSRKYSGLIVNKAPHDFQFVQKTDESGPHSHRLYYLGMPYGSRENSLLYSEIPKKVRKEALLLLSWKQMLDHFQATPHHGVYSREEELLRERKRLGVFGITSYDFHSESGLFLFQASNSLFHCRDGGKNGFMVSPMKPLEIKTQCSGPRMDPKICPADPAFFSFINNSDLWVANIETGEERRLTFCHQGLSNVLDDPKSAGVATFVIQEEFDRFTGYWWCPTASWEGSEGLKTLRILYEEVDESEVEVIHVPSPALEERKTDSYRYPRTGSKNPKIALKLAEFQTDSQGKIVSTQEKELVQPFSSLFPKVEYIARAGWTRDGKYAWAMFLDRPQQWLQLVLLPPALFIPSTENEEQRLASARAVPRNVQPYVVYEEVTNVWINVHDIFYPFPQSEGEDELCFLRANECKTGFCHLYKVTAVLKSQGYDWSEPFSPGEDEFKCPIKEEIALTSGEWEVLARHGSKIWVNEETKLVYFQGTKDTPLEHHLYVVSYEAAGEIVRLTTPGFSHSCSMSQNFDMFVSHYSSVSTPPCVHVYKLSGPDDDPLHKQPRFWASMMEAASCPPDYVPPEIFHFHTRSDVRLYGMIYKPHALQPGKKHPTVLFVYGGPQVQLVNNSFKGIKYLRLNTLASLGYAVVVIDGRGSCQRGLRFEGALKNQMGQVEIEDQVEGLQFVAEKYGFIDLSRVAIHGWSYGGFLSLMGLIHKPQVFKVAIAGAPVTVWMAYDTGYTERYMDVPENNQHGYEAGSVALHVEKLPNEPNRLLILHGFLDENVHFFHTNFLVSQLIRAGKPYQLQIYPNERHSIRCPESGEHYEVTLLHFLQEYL

Sequence of Dipeptidyl peptidase 8 (Q6V1X1 whole entry): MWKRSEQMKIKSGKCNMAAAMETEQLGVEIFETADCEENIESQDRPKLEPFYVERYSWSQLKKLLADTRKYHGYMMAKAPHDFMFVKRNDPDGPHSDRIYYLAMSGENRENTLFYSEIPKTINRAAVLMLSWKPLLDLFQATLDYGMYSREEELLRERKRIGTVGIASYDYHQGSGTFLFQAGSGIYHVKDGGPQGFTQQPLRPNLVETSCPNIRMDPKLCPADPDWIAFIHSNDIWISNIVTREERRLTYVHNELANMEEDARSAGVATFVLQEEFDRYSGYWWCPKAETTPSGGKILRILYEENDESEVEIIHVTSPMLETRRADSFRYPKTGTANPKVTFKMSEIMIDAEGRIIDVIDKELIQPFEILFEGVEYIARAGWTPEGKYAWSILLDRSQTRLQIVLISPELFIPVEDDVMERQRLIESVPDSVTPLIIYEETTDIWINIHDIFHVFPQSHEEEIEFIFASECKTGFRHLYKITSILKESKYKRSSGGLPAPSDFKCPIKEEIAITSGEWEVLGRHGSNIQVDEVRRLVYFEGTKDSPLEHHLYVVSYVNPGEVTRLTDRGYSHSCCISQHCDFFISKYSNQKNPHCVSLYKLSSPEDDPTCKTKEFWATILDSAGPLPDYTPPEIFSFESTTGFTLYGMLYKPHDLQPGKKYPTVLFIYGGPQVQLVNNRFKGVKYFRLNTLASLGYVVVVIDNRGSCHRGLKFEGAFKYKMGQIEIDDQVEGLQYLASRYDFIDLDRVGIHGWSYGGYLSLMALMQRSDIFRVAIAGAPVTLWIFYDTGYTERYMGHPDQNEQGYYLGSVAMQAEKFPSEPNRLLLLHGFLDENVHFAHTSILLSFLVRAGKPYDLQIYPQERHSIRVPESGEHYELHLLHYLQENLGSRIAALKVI

IC50 (Dipeptidyl peptidase 2): > 100 µM
IC50 (Dipeptidyl peptidase 8): > 100 µM
IC50 (Dipeptidyl peptidase 9): > 100 µM
SMILES: N[C@H]1C[C@H](N2CCn3c(nnc3C(F)(F)F)C2)CC[C@@H]1c1cc(F)c(F)cc1F
